According to patent US10471076B2, “Compositions and methods to treat vision disorders” (YouHealth Biotech, Limited, priority 2014, dated 2019):
“Also recorded” adds a separate entry of the source.

What was measured:
LSS = molecular target: T1, LSS (Rattus norvegicus, UniProt P48450); conditions: cited from earlier work
T1 sequence (P48450 1-733): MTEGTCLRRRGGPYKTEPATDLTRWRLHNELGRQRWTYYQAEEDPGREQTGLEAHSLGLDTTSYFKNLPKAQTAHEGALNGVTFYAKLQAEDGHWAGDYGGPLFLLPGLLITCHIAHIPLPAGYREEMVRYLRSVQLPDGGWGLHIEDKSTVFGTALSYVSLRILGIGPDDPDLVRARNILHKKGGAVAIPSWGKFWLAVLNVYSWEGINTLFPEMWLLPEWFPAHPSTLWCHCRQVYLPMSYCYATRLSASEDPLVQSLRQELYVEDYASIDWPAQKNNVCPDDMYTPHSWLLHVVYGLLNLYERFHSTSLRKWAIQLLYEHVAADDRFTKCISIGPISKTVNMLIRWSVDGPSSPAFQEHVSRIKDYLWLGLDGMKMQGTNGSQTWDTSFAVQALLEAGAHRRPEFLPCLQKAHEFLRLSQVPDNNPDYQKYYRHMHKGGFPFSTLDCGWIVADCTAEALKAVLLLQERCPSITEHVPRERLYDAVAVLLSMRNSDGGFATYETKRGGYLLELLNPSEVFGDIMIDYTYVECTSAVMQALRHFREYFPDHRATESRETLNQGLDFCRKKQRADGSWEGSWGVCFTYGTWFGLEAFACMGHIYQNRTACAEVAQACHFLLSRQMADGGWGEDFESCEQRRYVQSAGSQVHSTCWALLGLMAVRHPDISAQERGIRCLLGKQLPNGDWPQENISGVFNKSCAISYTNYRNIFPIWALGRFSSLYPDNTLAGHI

[1] = tested on: cataract-causing mutant crystallin proteins; test: Intracellular aggregation of mutant crystallins in HLEB-3 cells; assay type: cell-based, human; conditions: HLEB-3 cells co-transfected with LSS and crystallin mutant; 40 μM sterols 2 h, then 12 h; lanosterol P<1×10^−4, cholesterol P>0.1
Protocol: (§1) FIG. 9A, FIG. 9B, and FIG. 9C show inhibition of crystallin mutant aggregation by wild-type LSS and lanosterol in HLEB-3 cells (FIG. 9A) or HeLa cells (FIG. 9B). Cells co-transfected with LSS and crystallin mutant constructs were cultured for 24 h before assaying for aggregates. The rescue experiments were performed by addition of 40 […] μM sterols (lanosterol or cholesterol) to the cell culture medium for 2 h, the sterol medium was then replaced with fresh culture medium and the cells were cultured for a further 12 h. The percentage of cells with crystallin aggregates were calculated from ten randomly selected viewing fields. The values of the wild-type LSS group, mutant group, or mutant plus lanosterol group were calculated. […] After transfection for 4 h and incubation in fresh culture medium for another 24 h, the cells were lysed and centrifuged to separate supernatant and insoluble fractions. LSS and crystallin fusion proteins were detected by antibodies against Flag and GFP, respectively. Red arrows indicate higher crystalline content in the soluble fraction versus in the insoluble fraction in cells containing the WT-LSS.
(§2) Cells were transfected with various crystallin constructs for 4 h and cultured for an additional 24 h in fresh culture medium. Then the cells were treated with 10, 20 and 40 μM lanosterol in 1% (HLEB-3 cells) or 2% DMSO (HeLa cells) for 2 h and cultured for another 12 h. Cells treated with 1% (HLEB-3 cells) or 2% DMSO (HeLa cells) were used as the controls. Formation of intracellular aggregates of various crystallin proteins was visualized by fluorescence of GFP (green) and the nuclei were stained with Hoechst 33342 (blue). Typical intracellular aggregates are indicated by arrows.
(§3) The impact of LSS and lanosterol on intracellular crystallin aggregation were evaluated in single-blinded observer studies. Experiments have been repeated at least three times. P values were calculated using Student's t-tests. Fluorescence microscopy. […]

[2] = tested on: amyloid-like fibrils of crystallin proteins; test: Re-dissolution of pre-formed amyloid-like fibrils (ThT fluorescence, TEM, turbidity); assay type: biochemical, human; conditions: 0.2 mg/ml aggregates; 500 μM sterols in 500 μM DPPC liposome (b129 prints 500 mM), 37° C., 24 h; TEM and ThT fluorescence; concentration-dependent
Protocol: Crystallin aggregates were formed by incubating 5 mg ml^−1 protein solution at 60° C. for 2 h (α-crystallins) or 37° C. for 48 h (β- and γ-crystallins) in the presence of 1 M guanidine chloride. The preformed aggregates were re-suspended in PBS at a final protein concentration of 0.2 mg ml^−1 and were treated with 500 μM sterols in 500 μM DPPC liposome and incubated at 37° C. for 24 h. Aggregates treated with 500 μM DPPC liposome only were used as the controls. […] Aggregates treated with 500 μM DPPC liposome only were used as the controls.
All protein samples were prepared in 20 mM PBS buffer containing 150 mM NaCl, 1 mM EDTA and 1 mM DTT.
Protein aggregation and aggregate dissociation. The aggregates of the wild-type and mutated αA- and αB-crystallin proteins were obtained by heating the protein solutions containing 1 M guanidine chloride (ultrapure, Sigma-Aldrich) at a con-centration of 5 mg/ml at 60° C. for 2 h. The aggregates of the wild-type and mutated b- and c-crystallins were prepared by heating the protein solutions containing 1 M guanidine chloride at 37° C. for 48 h. The formation of aggregates was confirmed by ThT fluorescence, turbidity (absorbance at 400 nm) and transmission electron microscopy (TEM) observations. […] After 24 h of treatment, the protein solutions were used for ThT fluorescence, turbidity and negatively stained TEM observations. […]

[3] = tested on: cataract-causing mutant crystallin proteins; test: Intracellular aggregation of mutant crystallins in transfected human lens progenitor cells; assay type: cell-based
Protocol: To assess the effect of lanosterol on crystallin aggregation, human lens progenitor cells were co-transfected with LSS and various crystallin constructs for 4 h. Cells co-transfected with crystallin mutants and pcDNA3.1-N-Flag were used as a control. Human lens progenitor cells co-transfected with LSS and crystallin mutant constructs were cultured for 12 h before assaying for aggregates. The rescue experiments were performed after 16 h by addition of 40 mM sterols (lanosterol or cholesterol, Sigma-Aldrich) to the cell culture medium for 2 h, which was then replaced with fresh culture medium and cells cultured for 24 h. The percentage of cells with crystallin aggregates was calculated from ten randomly selected viewing fields. The values of the wild-type LSS group, mutant group, and mutant plus lanosterol group were calculated. Cells treated with 1% DMSO were used as the controls.
The impact of LSS and lanosterol on intracellular crystallin aggregation were evaluated in single-blinded observer studies. Experiments have been repeated at least three times. P values were calculated using Student's t-tests. Fluorescence microscopy. Equal amounts of the human lens progenitor cells, HLEB-3 cells or HeLa cells were seeded on glass coverslips pretreated with TC (Solarbio). After culturing for 24 h to reach 90% confluency, the cells were transfected with plasmids containing various LSS or crystallin genes or co-transfected with plasmids containing a certain crystallin gene and those containing the wild-type or mutated LSS gene. The controls were cells transfected with the plasmids containing peGFP-N1 and/or peDNA3.1-N-Flag. Both transfection and co-transfection were performed using Lipofectamine 3000 (Invitrogen) according to the instructions from the manufacturer.
The effect of lanosterol or cholesterol on the aggresome formation of various crystallins was studied by transfecting the cells with plasmids containing various crystallin genes. The cells were incubated for 24 h to enable efficient protein expression and aggresome formation. The cells were then treated with 0-40 mM sterols in 1% (for human lens progenitor cells) or 2% DMSO (for HeLa cells). Cells treated with 1% or 2% DMSO were used as the control. After treatment for 2 h, the media was replaced with fresh media. After 12 h, the cells were used for microscopy analysis.
The microscopy samples were prepared by washing the slips with phosphate buffered saline (PBS) three times. The cells were fixed with 4% paraformaldehyde for 40 min followed by another three washes with PBS. The cells were permeabilized with 0.1% Triton X-100 (Sigma) in PBS for 10 min and blocked with 5% normal goat serum in PBS for 1 h at 37° C. […] The mounted cells were analysed using a Carl Zeiss LSM 710 confocal microscope.

[4] = molecular target: T2, αA-crystallin (Y118D) aggregates (Homo sapiens, UniProt P02489, Y118D); test: Serial live-cell imaging, single-particle tracking of aggregates; assay type: cell-based; conditions: human lens progenitor cells; 40 mM sterol in 1% DMSO for 4 h
T2 construct: expressed in transfected cells; host or cells: human lens progenitor cells, G418-selected
T2 sequence (P02489 1-173 Y118D): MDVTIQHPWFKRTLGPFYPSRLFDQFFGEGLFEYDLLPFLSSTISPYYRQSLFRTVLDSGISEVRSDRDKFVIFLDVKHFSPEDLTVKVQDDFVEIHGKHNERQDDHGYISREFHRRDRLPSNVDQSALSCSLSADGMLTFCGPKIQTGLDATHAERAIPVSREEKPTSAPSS
Protocol: Live-cell imaging. Human lens progenitor cells were transfected with plasmids containing αA-crystallin (Y118D) mutant. After a 24 h transfection period, the cells with stable expression of αA-crystallin (Y118D) mutant were screen by incubation in culture medium containing 0.8 mg ml^−1 G418 for 7 days. Then the obtained cells were seeded onto glass bottom cell culture dishes (In Vitro Scientific) and treated with 1% DMSO, 40 mM cholesterol in 1% DMSO or 40 mM lanosterol in 1% DMSO for 4 h. Fresh culture medium was added, and the cells were analysed by serial live-cell imaging. Live-cell images were viewed with an Olympus IX81 microscope and captured with CellSens Dimension soft-ware (Olympus). Quantitative analysis of the size of aggregates was performed by measuring the fluorescence intensity of p62-positive aggregates using single-par-tide tracking in live-cell imaging. The live-cell imaging was conducted using three biological replicates with 1-8 repetitions each.

[5] = tested on: cataract-causing mutant crystallin proteins; test: Intracellular aggregation of mutant crystallins in HeLa cells; assay type: cell-based, human; conditions: HeLa cells co-transfected with LSS and crystallin mutant; 40 μM sterols 2 h, then 12 h; lanosterol P<1×10^−4, cholesterol P>0.1
Protocol: as §1, §2, §3

| SMILES | cataract formation by inhibition of LSS (LSS) | percentage of cells with crystallin aggregates versus control group (rescue) [1] | re-dissolution of aggregated crystallin proteins from amyloid-like fibrils [2] | intracellular aggregation / aggresome formation of crystallin proteins ([3]; 0-40 mM sterols in 1% DMSO for 2 h, then 12 h, concentration-dependent, n=3, lanosterol P<1×10^−4, cholesterol P>0.1) | crystallin aggregation in cells co-expressing an LSS mutant and a mutant crystallin (rescue by sterol) ([3]; 40 mM sterols in culture medium for 2 h, then fresh medium 24 h) | effect on αA-crystallin (Y118D) aggregates in live cells [4] | percentage of cells with crystallin aggregates versus control group (rescue) [5] |
| --- | --- | --- | --- | --- | --- | --- | --- |
| CCN(CC)CCO[C@H]1CC[C@@]2(C)C(=CC[C@@H]3[C@@H]2CC[C@]2(C)C(=O)CC[C@@H]32)C1 [U18666A] | cause cataracts |  |  |  |  |  |  |
| CC(C)CCC[C@@H](C)[C@H]1CC[C@H]2[C@@H]3CC=C4C[C@@H](O)CC[C@]4(C)[C@H]3CC[C@]12C [cholesterol, reference compound] |  | showed no difference to the control group | but not cholesterol | had no effect; also recorded: did not reduce intracellular aggregation | but not cholesterol | did not reduce aggresome formation | showed no difference to the control group |
